≈ marks a conversion by molar mass, not a printed value.
Tests used:
P388 [1] = test: Cytotoxicity against mouse doxorubicin-sensitive P388 cells after 3 days; type: functional; settings: P388, 72 h, read-out: ID50 (the source's name)
[2] = Cytotoxicity against human 9KB cells after 3 days; type: functional; settings: 72 h, read-out: ID50 (the source's name)
P388 [3] = test: Cytotoxicity against mouse doxorubicin-resistant P388 cells after 3 days; type: functional; settings: P388, 72 h, read-out: ID50 (the source's name)
B16 [4] = test: Antitumor activity in mouse B16 cells xenografted in BDF1 mouse at 0.62 mg/kg, ip administered from day 1 to 5 after transplantation; type: functional; settings: route intraperitoneal
Mus musculus [5] = test: Toxicity in mouse B16 cells xenografted in BDF1 mouse at 10 mg/kg, ip administered from day 1 to 5 after transplantation; type: organism-based; parameters: dose 10 mg/kg, route intraperitoneal; settings: in vivo
M5076 [6] = test: Antitumor activity in mouse M5076 cells xenografted in BDF1 mouse at 0.63 mg/kg, ip administered from day 1 to 9 after transplantation; type: functional; settings: route intraperitoneal
M5076 [7] = test: Antitumor activity in mouse M5076 cells xenografted in BDF1 mouse at 0.31 mg/kg, ip administered from day 1 to 9 after transplantation; type: functional; settings: route intraperitoneal
M5076 [8] = test: Antitumor activity in mouse M5076 cells xenografted in BDF1 mouse at 5 mg/kg, ip administered from day 1 to 9 after transplantation; type: functional; settings: route intraperitoneal
Mus musculus [9] = test: Toxicity in mouse M5076 cells xenografted in BDF1 mouse at 10 mg/kg, ip administered from day 1 to 9 after transplantation; type: organism-based; parameters: dose 10 mg/kg, route intraperitoneal; settings: in vivo
B16 [10] = test: Antitumor activity in mouse B16 cells xenografted in BDF1 mouse at 2.50 mg/kg, ip administered from day 1 to 5 after transplantation; type: functional; settings: dose 2.5 mg/kg; route intraperitoneal
M5076 [11] = test: Antitumor activity in mouse M5076 cells xenografted in BDF1 mouse at 1.25 mg/kg, ip administered from day 1 to 9 after transplantation; type: functional; settings: route intraperitoneal
B16 [12] = test: Antitumor activity in mouse B16 cells xenografted in BDF1 mouse at 1.25 mg/kg, ip administered from day 1 to 5 after transplantation; type: functional; settings: route intraperitoneal
B16 [13] = test: Antitumor activity in mouse B16 cells xenografted in BDF1 mouse at 5 mg/kg, ip administered from day 1 to 5 after transplantation; type: functional; settings: route intraperitoneal
M5076 [14] = test: Antitumor activity in mouse M5076 cells xenografted in BDF1 mouse at 2.50 mg/kg, ip administered from day 1 to 9 after transplantation; type: functional; settings: dose 2.5 mg/kg; route intraperitoneal

Row | SMILES | IC50 (P388 [1]) [µg/mL] | IC50 [2] [µg/mL] | IC50 (P388 [3]) [µg/mL] | also measured
1 | COc1cc2cc3c(c(O)c2c(O)c1/C=C/C(C)C)C(=O)CC(C)(O)C3 (stereo unspecified) [DEACETYLVISMIONE A] | 0.4 (≈ 1.12 µM) | 0.7 (≈ 1.96 µM) | 0.3 (≈ 0.842 µM) | –
2 | CC(C)=CCC/C(C)=C/Cc1c(O)cc2cc3c(c(O)c2c1O)C(=O)CC(C)(O)C3 (stereo unspecified) [VISMIONE F] | 2 (≈ 4.87 µM) | 2.8 (≈ 6.82 µM) | 13.5 (≈ 32.9 µM) | –
3 | COc1cccc2c1C(=O)c1c(O)c3c(c(O)c1C2=O)C[C@@](O)(C(=O)CO)C[C@@H]3O[C@H]1C[C@H](N)[C@H](O)[C@H](C)O1 [DOXORUBICIN] | 0.0055 (≈ 0.0101 µM) | 0.2 (≈ 0.368 µM) | 0.5 (≈ 0.92 µM) | –
4 | COc1cc2cc3c(c(O)c2c(O)c1/C=C/C(C)C)C(=O)CC(C)(OC(C)=O)C3 (stereo unspecified) [VISMIONE A] | 0.45 (≈ 1.13 µM) | 0.25 (≈ 0.627 µM) | 1.1 (≈ 2.76 µM) | T/C (B16 [4]): 98%; T/C (Mus musculus [5]): Toxic; T/C (M5076 [6]): 115%; T/C (M5076 [7]): 111%; T/C (M5076 [8]): 145%; T/C (Mus musculus [9]): Toxic; T/C (B16 [10]): 115%; T/C (M5076 [11]): 119%; T/C (B16 [12]): 112%; T/C (B16 [13]): 148%; T/C (M5076 [14]): 140%
5 | COc1cc2cc3c(c(O)c2c2c1C=CC(C)(C)O2)C(=O)CC(C)(OC(C)=O)C3 (stereo unspecified) [ACETYLVISMIONE B] | 5 (≈ 12.6 µM) | 42 (≈ 106 µM) | 2 (≈ 5.04 µM) | –
6 | CC(=O)OC1(C)CC(=O)c2c(cc3cc(OC/C=C(\C)CCC=C(C)C)cc(O)c3c2O)C1 (stereo unspecified) [ACETYLVISMIONE D] | 1.8 (≈ 3.98 µM) | 5 (≈ 11 µM) | – | –
7 | CC(=O)OC1(C)CC(=O)c2c(cc3cc(O)c(CC=C(C)C)c(O)c3c2O)C1 (stereo unspecified) [VISMIONE C] | – | 2.1 (≈ 5.46 µM) | – | –
8 | CC(=O)OC1(C)CC(=O)c2c(cc3cc(O)c(C/C=C(\C)CCC=C(C)C)c(O)c3c2O)C1 (stereo unspecified) [ACETYLVISMIONE F] | 2.7 (≈ 5.97 µM) | 1 (≈ 2.21 µM) | 3 (≈ 6.63 µM) | –
9 | COc1cc2cc3c(c(O)c2c2c1C=CC(C)(C)O2)C(=O)CC(C)(O)C3 (stereo unspecified) [VISMIONE B] | 10 (≈ 28.2 µM) | 10 (≈ 28.2 µM) | 3 (≈ 8.46 µM) | –
10 | CC(=O)OC1(C)CC(=O)c2c(c(C/C=C(\C)CCC=C(C)C)c3cc(O)cc(O)c3c2O)C1 (stereo unspecified) [VISMIONE G] | 30 (≈ 66.3 µM) | 3.2 (≈ 7.07 µM) | 30 (≈ 66.3 µM) | –
11 | CC(C)=CCC/C(C)=C/COc1cc(O)c2c(O)c3c(cc2c1)CC(C)(O)CC3=O (stereo unspecified) [VISMIONE D] | 14 (≈ 34.1 µM) | 14 (≈ 34.1 µM) | 18 (≈ 43.8 µM) | –
